This is an account of results in patent publication US10233173B2, “Substituted 1,2,3-triazoles as NR2B-selective NMDA modulators” (JANSSEN PHARMACEUTICA NV, priority 2016, dated 2019).

human GluN1/GluN2B NMDA receptors, sequence (Q13224 27-1484, other chains not shown): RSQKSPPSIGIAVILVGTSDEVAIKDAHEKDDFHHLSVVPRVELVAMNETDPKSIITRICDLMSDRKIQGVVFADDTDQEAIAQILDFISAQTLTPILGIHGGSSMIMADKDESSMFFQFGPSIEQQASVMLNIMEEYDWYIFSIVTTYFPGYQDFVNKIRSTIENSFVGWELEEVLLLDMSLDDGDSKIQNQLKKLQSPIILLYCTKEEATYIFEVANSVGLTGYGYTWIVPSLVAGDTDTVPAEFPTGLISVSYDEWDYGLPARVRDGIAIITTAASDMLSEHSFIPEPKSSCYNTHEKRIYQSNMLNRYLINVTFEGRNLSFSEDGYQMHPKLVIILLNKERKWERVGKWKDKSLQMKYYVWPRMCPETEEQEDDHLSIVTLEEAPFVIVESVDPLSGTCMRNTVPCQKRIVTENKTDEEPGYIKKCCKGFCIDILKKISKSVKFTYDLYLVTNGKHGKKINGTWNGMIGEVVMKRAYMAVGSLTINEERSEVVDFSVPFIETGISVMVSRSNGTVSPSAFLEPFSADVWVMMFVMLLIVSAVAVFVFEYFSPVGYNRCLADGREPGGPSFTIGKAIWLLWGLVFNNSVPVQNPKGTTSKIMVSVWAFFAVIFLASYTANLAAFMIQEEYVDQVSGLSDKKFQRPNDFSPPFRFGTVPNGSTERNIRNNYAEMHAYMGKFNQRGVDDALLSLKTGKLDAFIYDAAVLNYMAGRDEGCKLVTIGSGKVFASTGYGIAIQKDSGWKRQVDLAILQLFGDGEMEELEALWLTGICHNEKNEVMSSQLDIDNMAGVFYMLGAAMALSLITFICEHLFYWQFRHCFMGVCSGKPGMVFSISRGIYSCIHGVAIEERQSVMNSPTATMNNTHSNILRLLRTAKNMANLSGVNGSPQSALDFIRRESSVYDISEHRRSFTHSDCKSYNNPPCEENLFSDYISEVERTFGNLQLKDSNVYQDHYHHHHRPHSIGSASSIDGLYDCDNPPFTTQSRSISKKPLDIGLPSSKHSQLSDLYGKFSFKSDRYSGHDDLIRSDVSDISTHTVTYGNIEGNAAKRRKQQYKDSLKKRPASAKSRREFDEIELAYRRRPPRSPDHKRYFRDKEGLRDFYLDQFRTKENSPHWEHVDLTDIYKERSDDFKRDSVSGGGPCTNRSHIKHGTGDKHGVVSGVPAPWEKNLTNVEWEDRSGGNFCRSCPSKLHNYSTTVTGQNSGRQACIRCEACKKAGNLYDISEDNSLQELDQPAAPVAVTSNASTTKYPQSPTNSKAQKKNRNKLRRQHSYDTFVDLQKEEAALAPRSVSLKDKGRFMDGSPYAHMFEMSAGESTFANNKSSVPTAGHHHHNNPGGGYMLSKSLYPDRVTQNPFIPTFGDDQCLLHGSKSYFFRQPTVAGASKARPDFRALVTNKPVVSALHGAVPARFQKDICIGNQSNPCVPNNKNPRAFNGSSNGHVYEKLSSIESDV

The first assay concerns the target human GluN1/GluN2B NMDA receptors (Homo sapiens, UniProt Q05586+Q13224). Nature of the assay: Cell-based calcium flux (FLIPR) assay on cloned human NR1/NR2B ion channels expressed in mammalian cells. The following applies: standard assay; glutamate at ~EC80; FLIPR calcium flux. The method in brief: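 Calcium influx followed by FLIPR fluorescence after 5 min compound exposure and a further 5 min co-agonist challenge: 10 μM glycine with glutamate at ~EC80 (standard) or EC40 (HTS).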
With `Fc1cnc(OCc2cn(-c3cccc(Cl)c3F)nn2)nc1` [Example 614, 2-[[1-(3-Chloro-2-fluoro-phenyl)triazol-4-yl]methoxy]-5-fluoro-pyrimidine], the IC50 was found to be 4.03 µM.

Take `Cc1nc(OCc2cn(-c3ccc(Cl)c(C(C)(F)F)c3)nn2)ncc1Cl` [Example 543, 5-Chloro-2-[[1-[4-chloro-3-(1,1-difluoroethyl)phenyl]triazol-4-yl]methoxy]-4-methyl-pyrimidine]: the IC50 was found to be 0.015 µM.

`Fc1ccc(-n2cc(COc3ncc(N4CC(F)C4)cn3)nn2)cc1OC(F)F` [Example 507, 2-[[1-[3-(Difluoromethoxy)-4-fluoro-phenyl]triazol-4-yl]methoxy]-5-(3-fluoroazetidin-1-yl)pyrimidine]: the IC50 amounted to 0.008 µM.

For the compound `CNc1ccnc(OCc2cn(-c3ccc(F)c(C(F)(F)F)c3)nn2)n1` [Example 449, 2-[[1-[4-Fluoro-3-(trifluoromethyl)phenyl]triazol-4-yl]methoxy]-N-methyl-pyrimidin-4-amine], the IC50 turned out to be 0.034 µM.

`Cc1cnc(OCc2cn(-c3cccc(C)c3F)nn2)nc1` [Example 467, 2-[[1-(2-Fluoro-3-methyl-phenyl)triazol-4-yl]methoxy]-5-methyl-pyrimidine]: the IC50 is 0.711 µM.

For `COc1ncccc1OCc1cn(-c2ccc(F)c(C(C)(F)F)c2)nn1` [Example 561, 3-[[1-[3-(1,1-Difluoroethyl)-4-fluoro-phenyl]triazol-4-yl]methoxy]-2-methoxy-pyridine], the IC50 stood at 0.476 µM.

Regarding `CNC(=O)c1cnc(OCc2cn(-c3ccc(F)c(C(F)F)c3)nn2)nc1` [Example 409, 2-[[1-[3-(Difluoromethyl)-4-fluoro-phenyl]triazol-4-yl]methoxy]-N-methyl-pyrimidine-5-carboxamide], the IC50 came out at 0.149 µM.

On to `Cc1c(COc2ncc(Cl)cn2)nnn1-c1cccc(C(F)F)c1` [Example 529, 5-Chloro-2-[[1-[3-(difluoromethyl)phenyl]-5-methyl-triazol-4-yl]methoxy]pyrimidine], for which the IC50 stood at 1.32 µM.

Consider `Fc1cnc(OCc2cn(-c3ccc(F)c(F)c3)nn2)nc1` [Example 598, 2-[[1-(3,4-Difluorophenyl)triazol-4-yl]methoxy]-5-fluoro-pyrimidine], for which the IC50 turned out to be 1.45 µM.

On to `CC(F)(F)c1cnc(OCc2cn(-c3ccc(F)c(C(F)F)c3)nn2)nc1` [Example 701, 5-(1,1-Difluoroethyl)-2-((1-(3-(difluoromethyl)-4-fluorophenyl)-1H-1,2,3-triazol-4-yl)methoxy)pyrimidine], for which the IC50 stood at 0.958 µM.

As to `FC(F)c1cc(-n2cc(COc3ncc(C4CC4)cn3)nn2)ccc1Cl` [Example 630, 2-[[1-[4-Chloro-3-(difluoromethyl)phenyl]triazol-4-yl]methoxy]-5-cyclopropyl-pyrimidine], the IC50 worked out at 0.013 µM.

In the case of `CC(=O)c1cnc(OCc2cn(-c3ccc(F)c(C(F)(F)F)c3)nn2)nc1` [Example 447, 1-[2-[[1-[4-Fluoro-3-(trifluoromethyl)phenyl]triazol-4-yl]methoxy]pyrimidin-5-yl]ethanone], the IC50 came out at 0.014 µM.

Take `CC(F)(F)c1cc(-n2cc(COc3nccc(C(F)F)n3)nn2)ccc1F` [Example 563, 2-[[1-[3-(1,1-Difluoroethyl)-4-fluoro-phenyl]triazol-4-yl]methoxy]-4-(difluoromethyl)pyrimidine]: the IC50 came to 0.048 µM.

The same assay, now with this note: standard assay; human GluN1/GluN2B, calcium flux (FLIPR), glutamate ~EC80.
Consider `OCc1cnc(OCc2cn(-c3cccc(C(F)F)c3)nn2)nc1` [Example 160, [2-[[1-[3-(Difluoromethyl)phenyl]triazol-4-yl]methoxy]pyrimidin-5-yl]methanol], for which the IC50 was 0.173 µM.

In the case of `Cc1cc(-n2cc(COc3ncc(C(C)(C)O)cn3)nn2)ccc1F` [Example 181, 2-[2-[[1-(4-Fluoro-3-methyl-phenyl)triazol-4-yl]methoxy]pyrimidin-5-yl]propan-2-ol], the IC50 stood at 0.097 µM.

Take `COc1cnc(OCc2cn(-c3cccc(OC(F)F)c3)nn2)nc1` [Example 325, 2-[[1-[3-(Difluoromethoxy)phenyl]triazol-4-yl]methoxy]-5-methoxy-pyrimidine]: the IC50 was 0.027 µM.

Consider `COc1cnc(OCc2cn(-c3cccc(C(F)F)c3)nn2)nc1` [Example 90, 2-[[1-[3-(Difluoromethyl)phenyl]triazol-4-yl]methoxy]-5-methoxy-pyrimidine], for which the IC50 stood at 0.012 µM.

With `COc1cnc(OCc2cn(-c3ccc(F)c(C(F)(F)F)c3)nn2)nc1` [Example 73, 2-[[1-[4-Fluoro-3-(trifluoromethyl)phenyl]triazol-4-yl]methoxy]-5-methoxy-pyrimidine], the IC50 is 0.008 µM.

On to `Cn1ccnc1NCc1cn(-c2ccc(F)c(OC(F)F)c2)nn1` [Example 7, N-[[1-[3-(Difluoromethoxy)-4-fluoro-phenyl]triazol-4-yl]methyl]-1-methyl-imidazol-2-amine], for which the IC50 came to 1.87 µM.

For `FC(F)c1cccc(-n2cc(COc3nccc(C4CC4)n3)nn2)c1` [Example 283, 4-Cyclopropyl-2-[[1-[3-(difluoromethyl)phenyl]triazol-4-yl]methoxy]pyrimidine], the 50% inhibitory concentration (IC50) was found to be 0.169 µM.

Take `CCc1cnc(OCc2cn(-c3cc(C)cc(C)c3)nn2)nc1` [Example 365, 2-[[1-(3,5-Dimethylphenyl)triazol-4-yl]methoxy]-5-ethyl-pyrimidine]: the IC50 was found to be 0.022 µM.

Regarding `CC(C)c1cnc(OCc2cn(-c3ccc(F)c(C(F)(F)F)c3)nn2)nc1` [Example 75, 2-[[1-[4-Fluoro-3-(trifluoromethyl)phenyl]triazol-4-yl]methoxy]-5-isopropyl-pyrimidine], the half-inhibitory concentration (IC50) amounted to 0.026 µM.

With `CC(F)(F)c1cccc(-n2cc(COc3nccc(CO)n3)nn2)c1` [Example 299, [2-[[1-[3-(1,1-Difluoroethyl)phenyl]triazol-4-yl]methoxy]pyrimidin-4-yl]methanol], the IC50 is 0.049 µM.

As to `Fc1cnc(OCc2cn(-c3ccc4c(c3)OC(F)(F)O4)nn2)nc1` [Example 358, 2-[[1-(2,2-Difluoro-1,3-benzodioxol-5-yl)triazol-4-yl]methoxy]-5-fluoro-pyrimidine], the IC50 was found to be 0.726 µM.

Turning to `FC(F)c1cccc(-n2cc(CNc3ncc(Cl)cn3)nn2)c1` [Example 153, 5-Chloro-N-[[1-[3-(difluoromethyl)phenyl]triazol-4-yl]methyl]pyrimidin-2-amine], the IC50 came out at 0.216 µM.

On to `Cc1cnc(NCc2cn(-c3ccc(F)c(C(C)(F)F)c3)nn2)nc1C` [Example 210, N-[[1-[3-(1,1-Difluoroethyl)-4-fluoro-phenyl]triazol-4-yl]methyl]-4,5-dimethyl-pyrimidin-2-amine], for which the IC50 worked out at 0.05 µM.

In the case of `Cc1ccnc(OCc2cn(-c3cccc(OC(F)(F)F)c3)nn2)n1` [Example 347, 4-Methyl-2-[[1-[3-(trifluoromethoxy)phenyl]triazol-4-yl]methoxy]pyrimidine], the half-maximal inhibitory concentration (IC50) was 0.137 µM.

Take `Fc1ccc(-n2cc(COc3ncccn3)nn2)cc1Br` [Example 9, 2-[[1-(3-Bromo-4-fluoro-phenyl)triazol-4-yl]methoxy]pyrimidine]: the IC50 turned out to be 0.02 µM.

As to `COc1cnc(OCc2cn(-c3ccc(OC(F)F)cc3)nn2)nc1` [Example 331, 2-[[1-[4-(Difluoromethoxy)phenyl]triazol-4-yl]methoxy]-5-methoxy-pyrimidine], the IC50 was found to be 0.098 µM.

On to `Fc1ccc(-n2cc(COc3ccc(Cl)cn3)nn2)cc1OC(F)F` [Example 117, 5-Chloro-2-[[1-[3-(difluoromethoxy)-4-fluoro-phenyl]triazol-4-yl]methoxy]pyridine], for which the IC50 was 0.073 µM.

In the case of `Fc1ccc(-n2cc(COc3ncccn3)nn2)cc1C(F)(F)F` [Example 82, 2-[[1-[4-Fluoro-3-(trifluoromethyl)phenyl]triazol-4-yl]methoxy]pyrimidine], the IC50 was 0.126 µM.

For the compound `COc1cc(-n2cc(COc3ncccn3)nn2)ccc1Cl` [Example 15, 2-[[1-(4-Chloro-3-methoxy-phenyl)triazol-4-yl]methoxy]pyrimidine], the IC50 came to 0.699 µM.

Consider `CC(C)(O)c1cnc(OCc2cn(-c3ccc(F)c(C4CCC4)c3)nn2)nc1` [Example 178, 2-[2-[[1-(3-Cyclobutyl-4-fluoro-phenyl)triazol-4-yl]methoxy]pyrimidin-5-yl]propan-2-ol], for which the IC50 stood at 0.349 µM.

Consider `Fc1ccc(-n2cc(COc3ccc(C(F)(F)F)cn3)nn2)cc1C(F)F` [Example 65, 2-[[1-[3-(Difluoromethyl)-4-fluoro-phenyl]triazol-4-yl]methoxy]-5-(trifluoromethyl)pyridine], for which the IC50 was 0.056 µM.

As for `Cc1cnc(OC(C)c2cn(-c3ccc(Cl)c(OC(F)F)c3)nn2)nc1` (single isomer, unassigned) [Example 58, (S*)-2-[1-[1-[4-Chloro-3-(difluoromethoxy)phenyl]triazol-4-yl]ethoxy]-5-methyl-pyrimidine], the IC50 turned out to be 0.007 µM.

As for `FC(F)Oc1cc(-n2cc(CNc3ncccn3)nn2)ccc1Cl` [Example 98, N-[[1-[4-Chloro-3-(difluoromethoxy)phenyl]triazol-4-yl]methyl]pyrimidin-2-amine], the IC50 came to 0.331 µM.

With `CC(C)(O)c1cnc(OCc2cn(-c3cccc(C(F)F)c3)nn2)nc1` [Example 272, 2-[2-[[1-[3-(Difluoromethyl)phenyl]triazol-4-yl]methoxy]pyrimidin-5-yl]propan-2-ol], the IC50 was determined as 0.173 µM.

As to `Fc1cnc(OCc2cn(-c3ccc(Cl)c(OC(F)F)c3)nn2)nc1NCC(F)F` [Example 388, 2-[[1-[4-Chloro-3-(difluoromethoxy)phenyl]triazol-4-yl]methoxy]-N-(2,2-difluoroethyl)-5-fluoro-pyrimidin-4-amine], the IC50 was found to be 0.842 µM.

Consider `Cc1cccc(-n2cc(COc3ncc(C(C)(C)O)cn3)nn2)c1` [Example 249, 2-[2-[[1-(m-Tolyl)triazol-4-yl]methoxy]pyrimidin-5-yl]propan-2-ol], for which the IC50 is 0.289 µM.

With `FC(F)c1cc(-n2cc(COc3ccccn3)nn2)ccc1Cl` [Example 11, 2-[[1-[4-Chloro-3-(difluoromethyl)phenyl]triazol-4-yl]methoxy]pyridine], the concentration for half-maximal inhibition (IC50) came to 1.2 µM.
